In general, IC50 refers to the point on the concentration scale where inhibition reaches its midpoint.

Experimental findings from ChEMBL document CHEMBL5120838, “Synthesis and biological evaluation of geniposide derivatives as inhibitors of hyperuricemia, inflammatory and fibrosis” (Eur J Med Chem, 2022) are described below.

Active and inactive are the calls of the source. No cut-off for these calls is given here.

Experiment [1] deals with Mus musculus. Nature of the experiment: Anti-hyperuricemic activity against adenine and potassium oxonate-induced hyperuricemia Kunming mouse model assessed as reduction in serum uric acid level at 20 mg/kg, po administered via gavage once daily for 2 weeks (reference value: 318.16 +/- 3.31 uM). It counts as functional.
The species entered for experiment [2] is Mus musculus. To be noted: Kunming, dose 20.0 mg/kg, route po, time 2.0 weeks.
Description: In vivo inhibition of XOD in adenine and potassium oxonate-induced hyperuricemia Kunming mouse model assessed as reduction in XOD activity in liver at 20 mg/kg, po administered via gavage once daily for 2 weeks
The subject of experiment [3] is Mus musculus. Nature of the experiment: Anti-hyperuricemic activity against adenine and potassium oxonate-induced hyperuricemia Kunming mouse model assessed as reduction in serum uric acid level at 20 mg/kg, po administered via gavage once daily for 4 weeks (reference value: 356.15 +/- 3.31 uM). Format: functional.
The subject of experiment [4] is Mus musculus. Nature of the experiment: Renal protective activity against adenine and potassium oxonate-induced hyperuricemia Kunming mouse model assessed as reduction in urate accumulation in kidney at 20 mg/kg, po administered via gavage for 2 weeks by polarization microscopic analysis. Format: functional, organism-based.
Experiment [5] deals with Mus musculus. Nature of the experiment: Anti-hyperuricemic activity against adenine and potassium oxonate-induced hyperuricemia Kunming mouse model assessed as reduction in creatinine level at 20 mg/kg, po administered via gavage once daily for 4 weeks (reference value: 76.87 +/- 0.67 uM). Format: functional.
Experiment [6] relates to Mus musculus. Kind of experiment: Anti-hyperuricemic activity against adenine and potassium oxonate-induced hyperuricemia Kunming mouse model assessed as blood urea nitrogen level at 20 mg/kg, po administered via gavage once daily for 2 weeks (reference value: 9.88 +/- 1.21 mM). It counts as functional.
The test system of experiment [7] is Mus musculus. Kind of experiment: Anti-hyperuricemic activity against adenine and potassium oxonate-induced hyperuricemia Kunming mouse model assessed as blood urea nitrogen level at 20 mg/kg, po administered via gavage once daily for 4 weeks (reference value: 15.25 +/- 1.21 mM). Format: functional.
Experiment [8] deals with Mus musculus. Kind of experiment: Anti-hyperuricemic activity against adenine and potassium oxonate-induced hyperuricemia Kunming mouse model assessed as reduction in serum creatinine level at 20 mg/kg, po administered via gavage once daily for 2 weeks (reference value: 87.62 +/- 0.67 uM). Format: functional.
Experiment [9] addresses Xanthine dehydrogenase/oxidase (Bos taurus, UniProt P80457). Nature of the experiment: Inhibition of bovine XOD assessed as inhibition of uric acid formation using xanthine as substrate preincubated with enzyme for 5 mins followed by substrate addition and measured for 30 mins by microplate reader analysis.
For experiment [10], the system named is Mus musculus. Nature of the experiment: Nephroprotective activity against adenine and potassium oxonate-induced hyperuricemia Kunming mouse model assessed as appearance of clear tubular structures at 20 mg/kg, po administered via gavage and measured after 21 days by hematoxylin-eosin and Masson trichrome staining based optical microscopic analysis. It counts as functional, organism-based. The following applies: time 21.0 day.

For experiment [11], the system named is Mus musculus. Nature of the experiment: Nephroprotective activity against adenine and potassium oxonate-induced hyperuricemia Kunming mouse model assessed as reduction in renal tubule dilation at 20 mg/kg, po administered via gavage and measured after 21 days by hematoxylin-eosin and Masson trichrome staining based optical microscopic analysis. It counts as functional, organism-based. The following applies: time 21.0 day.

The test system of experiment [12] is Mus musculus. Nature of the experiment: Nephroprotective activity against adenine and potassium oxonate-induced hyperuricemia Kunming mouse model assessed as reduction in connective tissue hyperplasia at 20 mg/kg, po administered via gavage and measured after 21 days by hematoxylin-eosin and Masson trichrome staining based optical microscopic analysis. The following applies: time 21.0 day. It counts as functional, organism-based.

In experiment [13] the test system is Mus musculus. Nature of the experiment: Nephroprotective activity against adenine and potassium oxonate-induced hyperuricemia Kunming mouse model assessed as reduction in tubular-interstitial lesion development at 20 mg/kg, po administered via gavage and measured after 21 days by hematoxylin-eosin and Masson trichrome staining based optical microscopic analysis. The following applies: time 21.0 day. Format: functional, organism-based.

Experiment [14] has as its system Mus musculus. Kind of experiment: Nephroprotective activity against adenine and potassium oxonate-induced hyperuricemia Kunming mouse model assessed as reduction in neutrophils infiltrations at 20 mg/kg, po administered via gavage and measured after 21 days by hematoxylin-eosin and Masson trichrome staining based optical microscopic analysis. Format: functional, organism-based. The following applies: time 21.0 day.

Experiment [15] deals with Mus musculus. Kind of experiment: Nephroprotective activity against adenine and potassium oxonate-induced hyperuricemia Kunming mouse model assessed as reduction in cytoplasmic vacuolation of renal tubular epithelial cells at 20 mg/kg, po administered via gavage and measured after 21 days by hematoxylin-eosin and Masson trichrome staining based optical microscopic analysis. Format: functional, organism-based. To be noted: time 21.0 day.

Experiment [16] concerns HK-2. Nature of the experiment: Antiinflammatory activity in hyperuricemic human HK-2 cells assessed as reduction in TGF-beta level at 200 uM. Format: functional, cell-based.
Experiment [17] concerns HK-2. Nature of the experiment: Antiinflammatory activity in hyperuricemic human HK-2 cells assessed as reduction in IL-1beta level at 200 uM. It counts as functional, cell-based.
Experiment [18] concerns Mus musculus. Kind of experiment: Anti-hyperuricemic activity against adenine and potassium oxonate-induced hyperuricemia Kunming mouse model assessed as blood urea nitrogen level at 200 mg/kg, po administered via gavage once daily for 2 weeks (reference value: 9.88 +/- 1.21 mM). Format: functional.
Experiment [19] deals with Mus musculus. Kind of experiment: Anti-hyperuricemic activity against adenine and potassium oxonate-induced hyperuricemia Kunming mouse model assessed as reduction in serum uric acid level at 200 mg/kg, po administered via gavage once daily for 2 weeks (reference value: 318.16 +/- 3.31 uM). It counts as functional.
Experiment [20] concerns HK-2. Kind of experiment: Antiinflammatory activity in hyperuricemic human HK-2 cells assessed as reduction in TNF-alpha level at 200 uM. It counts as functional, cell-based.
Experiment [21] has as its system Mus musculus. Kind of experiment: Anti-hyperuricemic activity against adenine and potassium oxonate-induced hyperuricemia Kunming mouse model assessed as reduction in serum creatinine level at 200 mg/kg, po administered via gavage once daily for 2 weeks (reference value: 87.62 +/- 0.67 uM). Format: functional.

Xanthine dehydrogenase/oxidase, sequence (P80457 whole entry): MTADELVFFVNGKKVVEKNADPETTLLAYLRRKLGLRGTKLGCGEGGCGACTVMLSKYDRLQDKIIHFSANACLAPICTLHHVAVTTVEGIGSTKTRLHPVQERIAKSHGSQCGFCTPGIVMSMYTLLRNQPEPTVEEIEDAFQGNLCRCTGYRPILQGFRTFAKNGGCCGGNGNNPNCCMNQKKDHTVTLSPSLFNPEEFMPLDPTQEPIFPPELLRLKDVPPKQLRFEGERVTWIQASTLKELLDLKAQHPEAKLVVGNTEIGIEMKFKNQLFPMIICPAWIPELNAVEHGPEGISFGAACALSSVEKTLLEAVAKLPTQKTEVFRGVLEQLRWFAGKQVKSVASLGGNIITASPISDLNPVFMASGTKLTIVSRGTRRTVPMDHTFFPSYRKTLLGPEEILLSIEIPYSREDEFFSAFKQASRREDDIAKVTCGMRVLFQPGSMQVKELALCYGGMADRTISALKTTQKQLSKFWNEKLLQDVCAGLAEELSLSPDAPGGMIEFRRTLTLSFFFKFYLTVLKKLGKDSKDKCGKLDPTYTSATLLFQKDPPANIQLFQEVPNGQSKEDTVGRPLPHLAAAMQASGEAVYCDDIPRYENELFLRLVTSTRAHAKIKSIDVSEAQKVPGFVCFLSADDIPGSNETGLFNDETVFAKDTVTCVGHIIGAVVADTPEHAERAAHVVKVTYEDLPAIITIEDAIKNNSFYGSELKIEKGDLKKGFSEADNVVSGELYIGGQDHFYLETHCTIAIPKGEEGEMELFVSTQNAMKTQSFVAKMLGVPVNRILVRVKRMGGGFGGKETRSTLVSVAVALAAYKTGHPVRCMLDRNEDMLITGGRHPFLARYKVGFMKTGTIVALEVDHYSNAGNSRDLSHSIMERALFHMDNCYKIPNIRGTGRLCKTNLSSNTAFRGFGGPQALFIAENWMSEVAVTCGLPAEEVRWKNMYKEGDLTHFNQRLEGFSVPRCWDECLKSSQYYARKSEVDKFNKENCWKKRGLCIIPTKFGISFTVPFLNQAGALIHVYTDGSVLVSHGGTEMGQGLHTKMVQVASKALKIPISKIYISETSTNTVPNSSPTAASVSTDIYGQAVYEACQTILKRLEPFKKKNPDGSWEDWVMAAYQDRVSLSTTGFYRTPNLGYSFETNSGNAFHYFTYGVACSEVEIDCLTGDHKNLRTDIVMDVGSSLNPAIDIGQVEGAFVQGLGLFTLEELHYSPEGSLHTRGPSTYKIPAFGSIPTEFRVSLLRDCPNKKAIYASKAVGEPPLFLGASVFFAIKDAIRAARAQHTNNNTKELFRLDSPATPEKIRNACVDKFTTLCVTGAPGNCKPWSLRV

Take `Oc1ncnc2[nH]ncc12` [ALLOPURINOL]: the Activity was determined as 233.62 µM with Mus musculus [1]; 193.68 µM in the experiment on Mus musculus [3]; 47.26 µM in the experiment on Mus musculus [5]; 6.3 mM in the experiment on Mus musculus [6]; 12.58 mM in the experiment on Mus musculus [7]; 63.31 µM with Mus musculus [8]. Besides, in the experiment listed under Mus musculus [2], the inhibition entry was “Active”. For the same molecule, the result in the experiment on Mus musculus [4] was Active.
Regarding `CC(=O)OCC1=CC[C@@H]2C(C(=O)Nn3cccc3)=CO[C@@H](O[C@@H]3O[C@H](COC(C)=O)[C@@H](OC(C)=O)[C@H](OC(C)=O)[C@H]3OC(C)=O)[C@H]12`, the results for the Activity with Mus musculus [1], in the experiment on Mus musculus [6] and in the experiment with Mus musculus [8] were 263.03 µM, 6.42 mM and 65.57 µM, respectively. The IC50 in [9] is 2.15 µM. In addition, the outcome in the experiment on Mus musculus [10], with Mus musculus [11], with Mus musculus [12], in the experiment with Mus musculus [13], in the experiment on Mus musculus [14] and in the experiment on Mus musculus [15] was Active.
As to `COC(=O)C1=CO[C@@H](O[C@@H]2O[C@H](CO)[C@@H](O)[C@H](O)[C@H]2O)[C@@H]2C(CO)=CC[C@H]12` [GENIPOSIDE], the result in the experiment on HK-2 [16], in the experiment with HK-2 [17] and with HK-2 [20] was Active. Besides, the IC50 in experiment [9] was determined as 161 µM. For the same molecule, the Activity in the experiment on Mus musculus [18] was 7 mM; with Mus musculus [19], 236.72 µM; in the experiment on Mus musculus [21], 75.09 µM.
